Experiments:
[1] = target: T1, GAL4 DBD-CfEcR(DEF)/VP16AD-MmRXRE (Choristoneura fumiferana, UniProt O77240); test: cell-based; details: for fold induction at 33 µM: CHO, read-out: Fold Induction Average, 13B3 Assay (33 μM); for 13B3 Rel Max FI: maximum fold induction at any concentration relative to that of GS-E ligand
T1 sequence (O77240 1-513): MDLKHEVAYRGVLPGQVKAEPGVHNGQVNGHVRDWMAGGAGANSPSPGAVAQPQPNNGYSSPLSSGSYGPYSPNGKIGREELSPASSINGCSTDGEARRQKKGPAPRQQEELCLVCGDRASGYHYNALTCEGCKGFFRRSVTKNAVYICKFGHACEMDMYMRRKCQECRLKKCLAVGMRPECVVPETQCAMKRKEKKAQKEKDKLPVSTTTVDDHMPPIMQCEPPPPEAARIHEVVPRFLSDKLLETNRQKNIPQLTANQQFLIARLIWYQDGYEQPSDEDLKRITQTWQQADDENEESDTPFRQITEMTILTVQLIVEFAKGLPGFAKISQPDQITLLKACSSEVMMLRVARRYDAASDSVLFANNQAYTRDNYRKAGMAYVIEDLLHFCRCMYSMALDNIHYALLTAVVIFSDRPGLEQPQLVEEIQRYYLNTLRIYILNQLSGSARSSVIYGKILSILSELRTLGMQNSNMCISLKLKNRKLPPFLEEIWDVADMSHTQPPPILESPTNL
Summary of the method: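 Stable CHO clone 13B3 expressing GAL4 DBD-CfEcR(DEF) and VP16AD-mouse RXR(DE) with GAL4 RE-luciferase reporter. Ligands tested at 8 concentrations, 33–0.01 μM; luciferase read 48 h after treatment. Fold induction versus DMSO; BC50 from three-parameter logistic fit.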

[2] = target: T2, GAL4 DBD (1-147)-CfEcR(DEF)/VP16AD-βRXREF-LmUSPEF (Choristoneura fumiferana, UniProt O77240); test: 27-63 assay: luciferase reporter gene expression in stable CHO cell clone 27-63; details: for 27-63 Rel Max FI: maximum fold induction at any concentration relative to that of GS-E ligand; for CC50: read-out: 27-63 LC50, average, dose response, three-parameter logistic model
T2 sequence (O77240 191-513): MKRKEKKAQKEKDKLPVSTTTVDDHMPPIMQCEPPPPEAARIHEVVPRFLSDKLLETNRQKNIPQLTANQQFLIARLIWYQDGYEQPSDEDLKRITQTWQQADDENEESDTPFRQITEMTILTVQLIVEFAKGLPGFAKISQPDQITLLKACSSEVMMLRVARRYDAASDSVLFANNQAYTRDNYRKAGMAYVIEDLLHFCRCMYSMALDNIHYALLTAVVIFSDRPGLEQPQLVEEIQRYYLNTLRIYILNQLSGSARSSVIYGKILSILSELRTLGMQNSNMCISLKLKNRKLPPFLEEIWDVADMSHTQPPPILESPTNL
T2 sequence (P28702 296-455 partner limits assumed): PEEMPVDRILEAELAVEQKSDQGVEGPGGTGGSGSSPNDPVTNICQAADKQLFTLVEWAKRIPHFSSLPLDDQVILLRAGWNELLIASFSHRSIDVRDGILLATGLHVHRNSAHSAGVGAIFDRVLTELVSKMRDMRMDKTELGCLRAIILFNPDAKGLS
Summary of the method: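 CHO clone stably expressing GAL4 DBD-CfEcR(DEF) and VP16AD-HsRXRβ/LmUSP EF chimera plus a 5XGAL4RE-luciferase reporter; ligands given at 8 concentrations (33 μM to 0.01 μM), luminescence read 48 h after treatment. Fold induction versus DMSO cells; BC50 from three-parameter logistic fit.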

SMILES | EC50 [1] [µM] | fold induction at 33 µM [1] | 13B3 Rel Max FI [1] | 27-63 Rel Max FI [2] | CC50 [2] [µM] | fold induction at 33 µM ([2]; CHO, read-out: Fold Induction Average, 27-63 Assay (33 μM)) | Fold Induction Average, 13B3 Assay (33 μM) [1] | Fold Induction Average, 27-63 Assay (33 μM) ([2]; single dose 33 μM, RLU ligand treated / RLU DMSO treated cells)
COc1cccc(C(=O)NC2(C(=O)c3cc(C)cc(C)c3)CCSCC2)c1C [Example 28] | 3.25 | 3180 | 0.74 | 0.85 | 1.8 |  |  | 
CCC(CC)(NC(=O)c1cccc(OC)c1C)C(=O)c1ccccc1OC [Example 37] | > 33 | 885 | 0.08 | 0.81 | ~18 |  |  | 
COc1cccc(C(=O)NC2(C(=O)c3cc(C)cc(C)c3)CCS(=O)(=O)CC2)c1C [Example 62] | > 33 | 3 | 0.00 | 0.04 | ~30 | 224 |  | 
COc1cccc(C(=O)C(C)(C)NC(=O)c2ccccc2OC)c1 [Example 117] |  |  |  |  |  |  | 12 | 1
COc1cccc(C(=O)NC2(C(=O)c3cc(F)c(F)c(OC)c3)CCCCC2)c1C [Example 68] | 8.79 | 819 | 1.00 | 0.98 | 3.7 |  |  | 
COc1ccc(C(=O)C2(NC(=O)c3cccc(OC)c3C)CCCCC2)c(OC)n1 [Example 64] | 3.79 | 599 | 0.81 | 0.82 | 3.12 |  |  | 
CCc1c(OC)cccc1C(=O)NC1(C(=O)c2ccccc2)CCCC1 [Example 21] | > 33 | 2 | 0.00 | 0.09 | > 33 |  |  | 
COc1cccc(C(=O)NC2(C(=O)c3ccc(C)cc3)CCCCC2)c1C [Example 15] | 4.11 | 371 | 0.09 | 0.87 | 6.18 |  |  | 
